PubChem BioAssay (NCI)
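Where inhibition never reached the appropriate level, the endpoint shown equals the highest concentration tested. Otherwise, values were interpolated linearly from a five-concentration, 48-hour dose response in 96-well plates. Abbreviation: GI50, concentration required for 50% inhibition of growth. At the TGI there is no net growth.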

Tests used:
Experiment in all cases: NCI anticancer screen, dose series, 48 h
HOP-92 NSCLC = tested on: HOP-92 NSCLC
TK-10 renal = tested on: TK-10 renal
HCT-116 colon = tested on: HCT-116 colon
RPMI-8226 leukemia = tested on: RPMI-8226 leukemia
NCI-H460 lung = tested on: NCI-H460 lung
SK-MEL-2 melanoma = tested on: SK-MEL-2 melanoma
UACC-62 melanoma = tested on: UACC-62 melanoma
UACC-257 melanoma = tested on: UACC-257 melanoma
IGROV1 ovarian = tested on: IGROV1 ovarian
OVCAR-8 ovarian = tested on: OVCAR-8 ovarian
A549 NSCLC = tested on: A549 NSCLC
MDA-MB-435 = tested on: MDA-MB-435
U251 CNS = tested on: U251 CNS
786-0 renal = tested on: 786-0 renal
SNB-19 CNS = tested on: SNB-19 CNS
COLO 205 colon = tested on: COLO 205 colon
SF-539 CNS = tested on: SF-539 CNS
MDA-MB-231 breast = tested on: MDA-MB-231 breast
OVCAR-4 ovarian = tested on: OVCAR-4 ovarian
ACHN renal = tested on: ACHN renal
KM12 colon = tested on: KM12 colon
SF-268 CNS = tested on: SF-268 CNS
HCC-2998 colon = tested on: HCC-2998 colon
NCI/ADR-RES ovarian = tested on: NCI/ADR-RES ovarian
UO-31 renal = tested on: UO-31 renal
MCF7 breast = tested on: MCF7 breast
NCI-H522 lung = tested on: NCI-H522 lung
SF-295 CNS = tested on: SF-295 CNS
SR leukemia = tested on: SR leukemia
HT29 colon = tested on: HT29 colon
LOX IMVI melanoma = tested on: LOX IMVI melanoma
HL-60(TB) leukemia = tested on: HL-60(TB) leukemia
MDA-MB-468 breast = tested on: MDA-MB-468 breast
T-47D breast = tested on: T-47D breast
HCT-15 colon = tested on: HCT-15 colon
SN12C renal = tested on: SN12C renal
RXF 393 renal = tested on: RXF 393 renal
MOLT-4 leukemia = tested on: MOLT-4 leukemia
A498 renal = tested on: A498 renal
SW-620 colon = tested on: SW-620 colon
MALME-3M melanoma = tested on: MALME-3M melanoma
SK-OV-3 ovarian = tested on: SK-OV-3 ovarian
M14 melanoma = tested on: M14 melanoma
DU-145 prostate = tested on: DU-145 prostate
PC-3 prostate = tested on: PC-3 prostate
OVCAR-5 ovarian = tested on: OVCAR-5 ovarian
HS 578T breast = tested on: HS 578T breast
CCRF-CEM leukemia = tested on: CCRF-CEM leukemia
NCI-H23 lung = tested on: NCI-H23 lung
CAKI-1 renal = tested on: CAKI-1 renal
NCI-H226 lung = tested on: NCI-H226 lung
SK-MEL-28 melanoma = tested on: SK-MEL-28 melanoma
OVCAR-3 ovarian = tested on: OVCAR-3 ovarian
K-562 leukemia = tested on: K-562 leukemia
BT-549 breast = tested on: BT-549 breast
SNB-75 CNS = tested on: SNB-75 CNS
SK-MEL-5 melanoma = tested on: SK-MEL-5 melanoma
EKVX NSCLC = tested on: EKVX NSCLC
HOP-62 NSCLC = tested on: HOP-62 NSCLC

In the case of `COC(=O)CNC(=O)COc1c(OC)c(OC)cc2oc(-c3cccc(C(=O)Nc4ccc(Cl)cc4)c3)cc(=O)c12`, the GI50 (HOP-92 NSCLC) is reported as 4.04 µM, the TGI (HOP-92 NSCLC) is reported as 25.9 µM and the GI50 (TK-10 renal) is reported as 16.1 µM. The TGI (TK-10 renal) was 34.6 µM, the GI50 (HCT-116 colon) was 13.9 µM and the TGI (HCT-116 colon) was 48.5 µM. The GI50 (RPMI-8226 leukemia) was 6.51 µM, the TGI (RPMI-8226 leukemia) was greater than 100 µM and the GI50 (NCI-H460 lung) was 4.03 µM. For the same compound, the TGI (NCI-H460 lung) was 15.1 µM, the GI50 (SK-MEL-2 melanoma) was 10.1 µM and the TGI (SK-MEL-2 melanoma) was 25 µM. It also gave a GI50 (UACC-62 melanoma) of 6.1 µM, a TGI (UACC-62 melanoma) of 19.4 µM and a GI50 (UACC-257 melanoma) of 7.35 µM. It also gave a TGI (UACC-257 melanoma) of 24.9 µM, a GI50 (IGROV1 ovarian) of 11.4 µM and a TGI (IGROV1 ovarian) of 24.8 µM. It also gave a GI50 (OVCAR-8 ovarian) of 3.64 µM, a TGI (OVCAR-8 ovarian) of 11.8 µM and a GI50 (A549 NSCLC) of 7.25 µM. It also gave a TGI (A549 NSCLC) of 20.6 µM, a GI50 (MDA-MB-435) of 6.57 µM and a TGI (MDA-MB-435) of 21.9 µM. It also gave a GI50 (U251 CNS) of 4.82 µM, a TGI (U251 CNS) of 16.5 µM and a GI50 (786-0 renal) of 5.19 µM. The TGI (786-0 renal) was 17.2 µM, the GI50 (SNB-19 CNS) was 10.6 µM and the TGI (SNB-19 CNS) was 22.4 µM. The GI50 (COLO 205 colon) was 4.19 µM, the TGI (COLO 205 colon) was 17.8 µM and the GI50 (SF-539 CNS) was 8.6 µM. For the same compound, the TGI (SF-539 CNS) was 20.9 µM, the GI50 (MDA-MB-231 breast) was 3.57 µM and the TGI (MDA-MB-231 breast) was 13 µM. For the same compound, the GI50 (OVCAR-4 ovarian) was 2.95 µM, the TGI (OVCAR-4 ovarian) was 10.8 µM and the GI50 (ACHN renal) was 5.84 µM. The TGI (ACHN renal) was 18.7 µM, the GI50 (KM12 colon) was 27.5 µM and the TGI (KM12 colon) was greater than 100 µM. It also gave a GI50 (SF-268 CNS) of 15.1 µM, a TGI (SF-268 CNS) of 42.9 µM and a GI50 (HCC-2998 colon) of 15.4 µM. The TGI (HCC-2998 colon) was 70.8 µM, the GI50 (NCI/ADR-RES ovarian) was 9.62 µM and the TGI (NCI/ADR-RES ovarian) was 73.4 µM. For the same compound, the GI50 (UO-31 renal) was 13.8 µM, the TGI (UO-31 renal) was 26.7 µM and the GI50 (MCF7 breast) was 6.05 µM. For the same compound, the TGI (MCF7 breast) was 23.9 µM, the GI50 (NCI-H522 lung) was 7.22 µM and the TGI (NCI-H522 lung) was 20.1 µM. The GI50 (SF-295 CNS) was 13.9 µM, the TGI (SF-295 CNS) was 26.9 µM and the GI50 (SR leukemia) was 9.98 µM. The TGI (SR leukemia) was greater than 100 µM, the GI50 (HT29 colon) was 6.79 µM and the TGI (HT29 colon) was greater than 100 µM. For the same compound, the GI50 (LOX IMVI melanoma) was 5.02 µM, the TGI (LOX IMVI melanoma) was 19.5 µM and the GI50 (HL-60(TB) leukemia) was 13.3 µM. The TGI (HL-60(TB) leukemia) was greater than 100 µM, the GI50 (MDA-MB-468 breast) was 27.2 µM and the TGI (MDA-MB-468 breast) was greater than 100 µM. It also gave a GI50 (T-47D breast) of 8.16 µM, a TGI (T-47D breast) of 31.1 µM and a GI50 (HCT-15 colon) of 14.8 µM. The TGI (HCT-15 colon) was greater than 100 µM, the GI50 (SN12C renal) was 4.28 µM and the TGI (SN12C renal) was 17 µM. The GI50 (RXF 393 renal) was 3.54 µM, the TGI (RXF 393 renal) was 14.9 µM and the GI50 (MOLT-4 leukemia) was greater than 100 µM. The TGI (MOLT-4 leukemia) was greater than 100 µM, the GI50 (A498 renal) was 16.3 µM and the TGI (A498 renal) was 34.5 µM. It also gave a GI50 (SW-620 colon) of 14 µM, a TGI (SW-620 colon) of 69.7 µM and a GI50 (MALME-3M melanoma) of 4.75 µM. It also gave a TGI (MALME-3M melanoma) of 17.7 µM, a GI50 (SK-OV-3 ovarian) of 11.1 µM and a TGI (SK-OV-3 ovarian) of 23.6 µM. For the same compound, the GI50 (M14 melanoma) was 7.98 µM, the TGI (M14 melanoma) was 25 µM and the GI50 (DU-145 prostate) was 10.6 µM. For the same compound, the TGI (DU-145 prostate) was 28.3 µM, the GI50 (PC-3 prostate) was 10.3 µM and the TGI (PC-3 prostate) was 33.7 µM. It also gave a GI50 (OVCAR-5 ovarian) of 7.2 µM, a TGI (OVCAR-5 ovarian) of 40.1 µM and a GI50 (HS 578T breast) of 4.28 µM. It also gave a TGI (HS 578T breast) of 28.5 µM, a GI50 (CCRF-CEM leukemia) greater than 100 µM and a TGI (CCRF-CEM leukemia) greater than 100 µM. It also gave a GI50 (NCI-H23 lung) of 7.19 µM, a TGI (NCI-H23 lung) of 20 µM and a GI50 (CAKI-1 renal) of 18.9 µM. For the same compound, the TGI (CAKI-1 renal) was 41.6 µM, the GI50 (NCI-H226 lung) was 4.01 µM and the TGI (NCI-H226 lung) was 27.6 µM. The GI50 (SK-MEL-28 melanoma) was 5.9 µM, the TGI (SK-MEL-28 melanoma) was 18.9 µM and the GI50 (OVCAR-3 ovarian) was 12.4 µM. For the same compound, the TGI (OVCAR-3 ovarian) was 37.5 µM, the GI50 (K-562 leukemia) was 25.6 µM and the TGI (K-562 leukemia) was greater than 100 µM. For the same compound, the GI50 (BT-549 breast) was 3.05 µM, the TGI (BT-549 breast) was 12.3 µM and the GI50 (SNB-75 CNS) was 11.9 µM. It also gave a TGI (SNB-75 CNS) of 37.4 µM, a GI50 (SK-MEL-5 melanoma) of 3.75 µM and a TGI (SK-MEL-5 melanoma) of 14.7 µM. It also gave a GI50 (EKVX NSCLC) of 12.4 µM, a TGI (EKVX NSCLC) of 30.1 µM and a GI50 (HOP-62 NSCLC) of 3.56 µM. For the same compound, the TGI (HOP-62 NSCLC) was 11.5 µM.
